Measurements reported in patent publication US20120288509A1, “ANALYSIS OF METHYLATED NUCLEIC ACID” (priority 2004, published 2012).

System: SW48 cells
Test: 5-Aza-dC treatment and RT-PCR: reactivation of silenced genes in SW48 cells
Type: cell-based
Conditions: SW48 colon cancer cells, 5 μM 5-Aza-dC for 4 days, subset of candidate genes, versus untreated cells
Excerpt: FIG. 3: Validation of novel targets for aberrant methylation in colon cancer. A. Primers for PCR were designed for positive clones identified in the microarray analysis as hypermethylated in SW48 cells. DNA methylation was controlled by Single-gene PCR on enriched methylated samples prepared from WI38 primary fibroblasts and SW48 colon cancer cells according to the method described above. IN=input genomic DNA, M=enriched methylated DNA. As a separate control the inventors analyzed samples prepared from matched normal colon (N) and colon tumor (T) from three patients. MLH1 and RASSF1A have previously been described to be aberrantly methylated in SW48 cells and in some colon tumors. The imprinted H19 ICR sequence serves as a positive control for methylation. B. Control of methylation status by methylation-sensitive restriction. Genomic DNA was either digested with the methylation-sensitive HpaII enzyme or undigested and used as a PCR template with primers spanning a HpaII-containing PCR fragments in three randomly selected positive clones (top) and negative clones (bottom). The number of HpaII sites within the PCR amplicon is indicated in parenthesis. Presence of a PCR product after HpaII digest reflects DNA methylation in the sample and in each case confirms the above described enrichment analysis. C. Reactivation of silenced genes in SW48 cells by 5-Aza-dC treatment. […]

Nc1ncn([C@H]2C[C@H](O)[C@@H](CO)O2)c(=O)n1 [5-Aza-dC]
transcription of silenced (methylated) genes by RT-PCR after treatment with the demethylating agent: derepression
